Laboratory results reported in PubChem BioAssay AID690 (Sanford-Burnham Center for Chemical Genomics, 2007).
Calls of active or inactive are those of the source. How the calls were made is not given here.

Biological target: Alkaline phosphatase, placental type (Homo sapiens) (UniProt P05187)
Test: inhibition of human placental alkaline phosphatase – biochemical, luminescence, HTS (AID 690)
Details: purified PLAP, luminescent substrate

Alkaline phosphatase, placental type (Homo sapiens), sequence (P05187 whole entry, looked up): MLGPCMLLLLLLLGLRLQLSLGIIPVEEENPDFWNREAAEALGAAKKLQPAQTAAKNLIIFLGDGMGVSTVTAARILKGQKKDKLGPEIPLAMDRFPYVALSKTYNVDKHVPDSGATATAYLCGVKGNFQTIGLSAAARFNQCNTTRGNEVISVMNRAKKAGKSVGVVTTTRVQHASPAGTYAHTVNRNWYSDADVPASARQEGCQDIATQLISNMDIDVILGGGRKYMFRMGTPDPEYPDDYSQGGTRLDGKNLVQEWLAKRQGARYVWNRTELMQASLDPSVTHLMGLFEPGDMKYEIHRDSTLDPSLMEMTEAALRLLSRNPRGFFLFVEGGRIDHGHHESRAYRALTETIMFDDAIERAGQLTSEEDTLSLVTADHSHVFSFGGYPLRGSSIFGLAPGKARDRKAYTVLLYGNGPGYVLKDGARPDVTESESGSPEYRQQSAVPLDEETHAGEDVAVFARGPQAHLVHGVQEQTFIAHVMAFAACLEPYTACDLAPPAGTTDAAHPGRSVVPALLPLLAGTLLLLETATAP

SMILES	IC50
CCn1c(CSc2nc3ccccc3s2)nnc1SCC(=O)c1ccc(O)c(O)c1	1.52 µM
CCCCOc1ccc(CSC(=N)N)cc1[N+](=O)[O-]	78.3 µM
CC(C)C1N=C2c3ccccc3N=C(SCC(=O)c3ccc(O)c(O)c3)N2C1=O (stereo not given)	3.11 µM
O=C(NC1(C(F)(F)F)Oc2ccc(Cl)cc2O1)N1CCC2(CC1)OCCO2 (stereo not given)	4.87 µM
COCCNC(=O)NC1(C(F)(F)F)Oc2ccc(Cl)cc2O1 (stereo not given)	12.3 µM
O=C(CCCn1c(SCC(=O)c2ccc(O)c(O)c2)nc2ccccc2c1=O)NCC1CCCO1 (stereo not given)	3.45 µM
CC(=O)Oc1cc2oc(=O)cc(C)c2cc1OC(C)=O	6.24 µM
COc1ccc(-c2nnc(-c3ccc(Br)o3)o2)cc1OC	10.3 µM
Cc1cc([N+](=O)[O-])ccc1NCc1ccc2ccccc2c1	75 µM
COC(=O)C1=C(O)/C(=C\c2ccc(O)c(OC)c2)N=C1C	28.8 µM
O=P(O)(O)c1ccccc1OCc1ccccc1	8.43 µM
COCc1[nH]nc2c1C(c1cc(OC)c(O)c(OC)c1)C(C#N)=C(N)O2 (stereo not given)	23 µM
CCOC(=O)SC1=N/C(=C\c2ccc(N(C)C)cc2)C(=O)S1	47.4 µM
CN1c2ccccc2C(C)(C)[C@]12C=Cc1cc(O)ccc1O2	43.9 µM
N#C/C(=C\c1ccc(O)c(O)c1)S(=O)(=O)c1ccccc1	4.1 µM
CCn1c(SCC(=O)c2ccc(O)c(O)c2)nnc1-c1ccccc1	4.25 µM
CCOc1cc(/C=C(/C#N)C(=O)Nc2ccc(O)cc2)cc(Br)c1O	48.5 µM
Oc1ccc(C2=Nn3c(nnc3-c3ccco3)SC2)cc1O	21.5 µM
CC1=NN(Cc2ccccc2)C(=O)/C1=C\c1ccc(N(C)C)cc1	18.3 µM
O=C1Nc2ccc(Br)cc2/C1=N/N=C/C1=C(N2CCOCC2)C(=C\c2ccccc2)/CC1	45.6 µM
C=CCn1c(SCC(=O)c2ccc(O)c(O)c2)nnc1-c1ccccc1OC	1.55 µM
O=C(NCc1cccnc1)NC1(C(F)(F)F)Oc2ccc(Cl)cc2O1 (stereo not given)	12.4 µM
CC1CCCC/C1=N/Nc1ccc([N+](=O)[O-])cc1[N+](=O)[O-] (stereo not given)	7.24 µM
COC(=O)c1ccc2c(c1)C(C)(C)C(/C=C/c1ccc(O)cc1)=[N+]2C	10.8 µM
O=C1C2CC=CCC2C(=O)N1c1n[nH]c(-c2ccccc2)n1 (stereo not given)	8.77 µM
CC1(C)Cc2c(sc3nc4n(c(=N)c23)CCCCC4)CO1	1.88 µM
CCOC(=O)c1c(-n2c(C)cc(C=C3C(=O)NC(=S)NC3=O)c2C)sc2c1CCCC2	63.9 µM

SMILES	IC50
CCN1/C(=C\C=C\C2=[N+](CC)c3ccccc3C2(C)C)C(C)(C)c2ccccc21	22 µM
CCN1/C(=C/c2ccc3ccccc3[n+]2CC)C=Cc2ccccc21	10.6 µM
O=C(CSc1nc2ccccc2c(=O)[nH]1)c1ccc(O)c(O)c1	9.59 µM
COc1cc(/C=C2/CCC/C(=C\c3cc(O)c(OC)c(Cl)c3)C2=O)cc(Cl)c1O	28.2 µM
COc1cccc(OCCNc2cc(Cl)ccc2[N+](=O)[O-])c1	60.7 µM
CN(C)c1ccc(/C=C/C=C2/SC(=S)N(c3ccccc3)C2=O)cc1	9.81 µM
N#Cc1c(SCC(=O)OCc2ccccc2)nsc1SCC(=O)OCc1ccccc1	62.9 µM
O=c1oc2cc(Cl)ccc2n1CSc1nc2ccccc2s1	85.6 µM
COC(=O)c1cn[nH]c1NC(=S)Nc1ccccc1C	19.3 µM
CN1/C(=C\C=C2\N=C(c3ccc(F)cc3)OC2=O)C(C)(C)c2ccccc21	35.7 µM
COC(=O)c1ccc2c(c1)C(C)(C)C(/C=C/c1ccccc1O)=[N+]2C	15 µM
CCC1CCc2c(c3ccccc3[nH]c2=O)O1 (stereo not given)	14.1 µM
CNc1nnc(-c2cc3ccccc3oc2=O)s1	2.85 µM
Clc1ccc(CSc2nnnn2-c2ccc3c(c2)OCO3)c(Cl)c1	73.3 µM
Cc1[nH]c2ccccc2c1/C=C/c1cc[n+](C)cc1	29.1 µM
Oc1ccc(CC2CC3CCN2CC3)cc1O (stereo not given)	36 µM
CN1C(=O)/C(=C2/C=Cc3ccccc3N2CCCS(=O)(=O)O)SC1=S	15.2 µM
C=CCN1C(=O)NC2(O)C(=O)c3ccccc3C12O (stereo not given)	15.8 µM
CN1C(=O)/C(=C\c2ccc(N3CCCCC3)o2)C(=O)NC1=S	10.1 µM
CSc1cccc(NC(=O)/C=C/c2ccccc2)c1	75.8 µM
COc1cc(/C=C2\N=C3CCCCCN3C2=O)ccc1O	25.6 µM
CN(C)c1ccc(/C=C/c2cc[n+](C)cc2)cc1	17.3 µM
COC(=O)C(N)Cc1ccc(O)c(O)c1 (stereo not given)	10.2 µM
CCCCOC(=O)C(C)Nc1n[nH]c(=S)[nH]c1=O (stereo not given)	43.3 µM
CCN1/C(=C/c2ccc3cccc(C)c3[n+]2CC)Sc2ccccc21	11.9 µM
CCc1ccc(NSc2ccccc2[N+](=O)[O-])cc1	29.2 µM
Cc1cc(C)nc(NN2C(=O)/C(=C/c3ccc(O)cc3)SC2=S)n1	18.8 µM

SMILES	IC50
C/C(=N\Nc1ccc([N+](=O)[O-])cc1)c1cccc(N)c1	51.9 µM
Cc1ccc(C)c(NC(=S)NC(NC(=O)Cc2cccc3ccccc23)C(Cl)(Cl)Cl)c1 (stereo not given)	27.5 µM
CN(C)c1ccc(/C=C/C(=O)c2cccc(Br)c2)cc1	35.5 µM
Cc1nn(-c2ccccc2)c(C)c1/C=N/NC(=O)c1cc(-c2ccccc2)n[nH]1	7.34 µM
COc1cc(/C=C(/C(=O)c2cccs2)c2nc3ccccc3[nH]2)cc(OC)c1O	20.4 µM
O=C(CSc1n[nH]c(-c2ccccc2)n1)c1ccc(O)c(O)c1	11.1 µM
O=C1NC(=S)N/C1=C/c1cc([N+](=O)[O-])ccc1O	inactive
CCCc1[nH]nc2c1C(c1ccc(O)c(OC)c1)C(C#N)=C(N)O2 (stereo not given)	11.8 µM
Clc1ccc(CSCCc2ccncc2)cc1	5.76 µM
O=C(C[n+]1ccc(C(=O)N/N=C/c2ccc(Br)cc2)cc1)c1ccccc1	34.3 µM
O=C(Nc1cc(N2CCOCC2)ncn1)NC1(C(F)(F)F)Oc2ccc(Cl)cc2O1 (stereo not given)	12.7 µM
CC(C)N=c1scc(-c2ccco2)n1/N=C/c1ccc(O)c(O)c1	4.97 µM
O=C1C2C3C=CC(C3)C2C(=O)N1c1n[nH]c(-c2ccccc2)n1 (stereo not given)	7.63 µM
Cc1cc2nc(C3CCN(Cc4nnnn4Cc4cccs4)CC3)[nH]c2cc1C	7.67 µM
O=C1C2C3C=CC(C3)C2C(=O)N1c1n[nH]c(-c2cccnc2)n1 (stereo not given)	29.8 µM
CCn1c(SCC(=O)c2ccc(O)c(O)c2)nnc1-c1ccccc1OC	4.36 µM
c1ccc(-n2ncc3c2ncn2cnnc32)cc1	2.11 µM
CCOc1ccccc1OCc1nn2c(-c3ccc(C)cc3)nnc2s1	55.8 µM
Clc1ccc(/C=C/c2nc3ccccc3[nH]2)c(Cl)c1	6.37 µM
CN(C)CCNc1ncnc2ccccc12	71.3 µM
O/N=C/c1cc(Cl)ccc1OCc1cccc2ccccc12	42.3 µM
O=c1sc2ccccc2n1COc1ccc(Cl)cc1	99.3 µM
c1ccc(CSCCc2ccncc2)cc1	2.01 µM
COc1ccc(-n2nnnc2SCC(=O)c2ccc(O)c(O)c2)cc1	1.13 µM
COc1cccc(-c2nnc3n2N=C(c2cccc(Br)c2)CS3)c1	76.1 µM
c1ccc(Nc2cccc(Nc3ccccc3)n2)cc1	65.4 µM
